Measurements: patent US20240409536A1, “COMPOUNDS AND METHODS FOR MODULATING SPLICING” (REMIX THERAPEUTICS INC., priority 2021, published 2024)
Where a name gives a salt, the structure may show the parent alone.

Tests used:
HiBiT-tagged MYB protein = assay: HiBiT protein abundance assay, MYB (K562 HiBiT knock-in cells); assay type: cell-based, human; conditions: 24 hours
In short: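 K562 cells with endogenous HiBiT knock-in tag, 10-point 3-fold dilutions (top 10 μM final, ≤0.25% DMSO), 24 h at 37 °C. Lytic Nano-Glo HiBiT luminescence, normalized to DMSO and unmodified K562 baselines; IC50 is concentration giving 50% protein abundance from four-parameter fit.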

SMN2 mRNA = assay: Gene panel canonical junction qPCR assay, SMN2 CJ mRNA decrease; assay type: cell-based, human; conditions: Homo sapiens, canonical junction qPCR, read-out: SMN2 IC50 (decrease in CJ mRNA levels)
In short: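 IC50 values describe loss of canonical-junction transcript, fitted by 4-parameter logistic to percent response derived from fixed ΔCt windows. Read-out: RT-qPCR on lysates of compound-treated K562 or A673 cells, probes overlapping the exon junction, ΔΔCt versus housekeeping gene and DMSO control.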

| Compound | IC50 (HiBiT-tagged MYB protein) | IC50 (SMN2 mRNA) |
| --- | --- | --- |
| Cc1cn2cc(NC(=O)c3ccc(N4CCNCC4)c4ccnnc34)cc(C(C)O)c2n1 (stereo not drawn) [Compound 182, N-[8-(1-hydroxyethyl)-2-methylimidazo[1,2-a]pyridin-6-yl]-5-(piperazin-1-yl)cinnoline-8-carboxamide trifluoroacetate] | > 10000 nM | 1000 to 10000 nM |
| COc1cnc2c(C(=O)Nc3cc(F)c4nc(C)cn4c3)ccc(N3C[C@@H](C)N[C@@H](C)C3)c2n1 [Compound 223] | < 100 nM | < 100 nM |
| CC[C@@H]1CN(c2ccc(C(=O)Nc3cc(F)c4nc(C)cn4c3)c3nnccc23)CCN1 [Compound 151] | < 100 nM | < 100 nM |
| COc1cc(NC(=O)c2ccc(N3CCNCC3)c3ccnnc23)cn2cc(C)nc12 [Compound 176, N-{8-methoxy-2-methylimidazo[1,2-a]pyridin-6-yl}-5-(piperazin-1-yl)cinnoline-8-carboxamide trifluoroacetate] | 100 to 1000 nM | < 100 nM |
| Cc1cn2cc(NC(=O)c3ccc(N4CCC(N(C)C)CC4)c4ccnnc34)cc(F)c2n1 [Compound 137] | < 100 nM | < 100 nM |
| Cc1cn2cc(NC(=O)c3ccc(N4CCC(N5CCCC5)C4)c4ccnnc34)cc(F)c2n1 (stereo not drawn) [Compound 133] | 100 to 1000 nM | < 100 nM |
| COc1ncc2c(N3C[C@@H](C)N[C@@H](C)C3)ccc(C(=O)Nc3cn4cc(C)nc4c(OC)n3)c2n1 [Compound 378] | < 100 nM | < 100 nM |
| Cc1cc2c(N3CCNCC3)ccc(C(=O)Nc3cc(F)c4nc(C)cn4c3)c2nn1 [Compound 159] | < 100 nM | < 100 nM |
| Cc1cn2cc(NC(=O)c3ccc(N4CCN(CCF)C5(CC5)C4)c4nccnc34)cc(F)c2n1 [Compound 370] | 1000 to 10000 nM | 100 to 1000 nM |
| Cc1cn2cc(NC(=O)c3ccc(N4CCN[C@@H](C)C4)c4nccnc34)cc(F)c2n1 [Compound 187, N-{8-fluoro-2-methylimidazo[1,2-a]pyridin-6-yl}-8-(3-methylpiperazin-1-yl) quinoxaline-5-carboxamide] | < 100 nM | < 100 nM |
| CNC1CCN(c2ccc(C(=O)Nc3cc(F)c4nc(C)cn4c3)c3nccnc23)C1 (stereo not drawn) [Compound 190, N-{8-fluoro-2-methylimidazo[1,2-a]pyridin-6-yl}-8-[3-(methylamino)pyrrolidin-1-yl]quinoxaline-5-carboxamide] | 100 to 1000 nM | < 100 nM |
| Cc1cnc2c(C(=O)Nc3cc(F)c4nc(C)cn4c3)ccc(N3CCC(N(C)C)CC3)c2n1 [Compound 208, 8-[4-(dimethylamino)piperidin-1-yl]-N-{8-fluoro-2-methylimidazo[1,2-a]pyridin-6-yl}-2-methylquinoxaline-5-carboxamide; bis(trifluoroacetic acid)] | < 100 nM | < 100 nM |
| Cc1cn2cc(NC(=O)c3ccc(N4CCNCC4)c4ccnnc34)nc(C)c2n1 [Compound 164, N-{2,8-dimethylimidazo[1,2-a]pyrazin-6-yl}-5-(piperazin-1-yl)cinnoline-8-carboxamide 2,2,2-trifluoroacetate] | 100 to 1000 nM | < 100 nM |
| Cc1cn2cc(NC(=O)c3ccc(N4CCNCC4)c4ccnnc34)cc(C#N)c2n1 [Compound 167, N-{8-cyano-2-methylimidazo[1,2-a]pyridin-6-yl}-5-(piperazin-1-yl)cinnoline-8-carboxamide trifluoroacetic acid salt] | 100 to 1000 nM | < 100 nM |
| Cc1cn2cc(NC(=O)c3ccc(C4CCNCC4)c4nccnc34)cc(F)c2n1 [Compound 371] | 100 to 1000 nM | < 100 nM |
| COc1cnc2c(N3CCC(N(C)C)CC3)ccc(C(=O)Nc3cc(F)c4nc(C)cn4c3)c2n1 [Compound 206, 8-[4-(dimethylamino)piperidin-1-yl]-N-{8-fluoro-2-methylimidazo[1,2-a]pyridin-6-yl}-3-methoxyquinoxaline-5-carboxamide; trifluoroacetic acid] | < 100 nM | < 100 nM |
| COc1nc(NC(=O)c2ccc(N3CCNCC3)c3ccnnc23)cn2cc(C)nc12 [Compound 179, N-{8-methoxy-2-methylimidazo[1,2-a]pyrazin-6-yl}-5-(piperazin-1-yl)cinnoline-8-carboxamide] | < 100 nM | < 100 nM |
| Cc1cn2cc(NC(=O)c3ccc(N4CCN(C)[C@H](C)C4)c4ccnnc34)cc(F)c2n1 [Compound 149] | < 100 nM | < 100 nM |
| CN[C@@H]1CCN(c2ccc(C(=O)Nc3cc(F)c4nc(C)cn4c3)c3nccnc23)C1 (single isomer, unassigned) [Compound 193, N-{8-fluoro-2-methylimidazo[1,2-a]pyridin-6-yl}-8-[3-(methylamino)pyrrolidin-1-yl]quinoxaline-5-carboxamide] | < 100 nM | < 100 nM |
| Cc1cn2cc(NC(=O)c3ccc(N4C[C@H]5C[C@@H]4C5N(C)C)c4ccnnc34)cc(F)c2n1 (stereo partly drawn) [Compound 155] | > 10000 nM | 100 to 1000 nM |
| O=C(Nc1cn[nH]c1)c1ccc(N2CCNCC2)c2ccnnc12 [Compound 126] | > 10000 nM | > 10000 nM |
| CCN1CCC(c2ccc(C(=O)Nc3cc(F)c4nc(C)cn4c3)c3nnccc23)CC1 [Compound 141] | < 100 nM | < 100 nM |
| CN[C@H]1CCN(c2ccc(C(=O)Nc3cc(F)c4nc(C)cn4c3)c3nccnc23)C1 (single isomer, unassigned) [Compound 194, N-{8-fluoro-2-methylimidazo[1,2-a]pyridin-6-yl}-8-[3-(methylamino)pyrrolidin-1-yl]quinoxaline-5-carboxamide] | < 100 nM | < 100 nM |
| Cc1cnc2c(N3CCC(N(C)C)CC3)ccc(C(=O)Nc3cc(F)c4nc(C)cn4c3)c2n1 [Compound 200, 8-[4-(dimethylamino)piperidin-1-yl]-N-{8-fluoro-2-methylimidazo[1,2-a]pyridin-6-yl}-3-methylquinoxaline-5-carboxamide] | < 100 nM | < 100 nM |
| COc1cnc2c(N3CCNCC3)ccc(C(=O)Nc3cc(F)c4nc(C)cn4c3)c2n1 [Compound 207, N-{8-fluoro-2-methylimidazo[1,2-a]pyridin-6-yl}-3-methoxy-8-(piperazin-1-yl)quinoxaline-5-carboxamide; bis(trifluoroacetic acid)] | < 100 nM | < 100 nM |
| Cc1cn2cc(NC(=O)c3ccc(N4CC5(CNC5)C4)c4ccnnc34)cc(F)c2n1 [Compound 131] | < 100 nM | < 100 nM |
| Cc1cn2cc(NC(=O)c3ccc(N4C[C@H]5CC[C@@H](C4)N5)c4ccnnc34)cc(F)c2n1 [Compound 108] | 100 to 1000 nM | < 100 nM |
| Cc1cn2cc(NC(=O)c3ccc(N4CCNC5(CCOC5)C4)c4nccnc34)cc(F)c2n1 (stereo not drawn) [Compound 373] | 100 to 1000 nM | < 100 nM |
| CC[C@H]1CN(c2ccc(C(=O)Nc3cc(F)c4nc(C)cn4c3)c3nnccc23)CCN1 [Compound 152] | < 100 nM | < 100 nM |
| Cc1cn2cc(NC(=O)c3ccc(N4C[C@@H](C)N[C@@H](C)C4)c4ccnnc34)cc(F)c2n1 [Compound 161, 5-(3,5-dimethylpiperazin-1-yl)-N-{8-fluoro-2-methylimidazo[1,2-a]pyridin-6-yl}cinnoline-8-carboxamide 2,2,2-trifluoroacetate] | < 100 nM | < 100 nM |
